Values of other authors as cited in patent US20080242731A1, “TOPICAL ANESTHESIA FORMULATION FOR BODILY CAVITIES” (T&A PHARMA PTY. LIMITED, priority 2003, published 2008).

Details: maintained at pH 7, low concentration, within 4 weeks

CCN(CC)CC(=O)Nc1c(C)cccc1C [lignocaine, Lignocaine]
degradation: 35%
